From patent US3943154A, “Acylamides of beta-cyano-ethenesulfonyl substituted aminoarenes” (Sanitized Incorporated, priority 1973, dated 1976)
≈ marks a conversion by molar mass, not a printed value. Read-outs that look alike come from different tables or passages of the source.

Assays:
Format in all cases: cell-based
[1] = tested on: Staphylococcus aureus ATCC 6538 DR; test: button assay, antibacterial activity; settings: for MIC: Staphylococcus aureus, ATCC6538, 24 h, read-out: Antibacterial Activity S.aureus, minimum inhibitory concentration; for Antibacterial Activity S.aureus, minimum inhibitory concentration: button assay, lowest concentration showing a clear zone of inhibition, 24 hours at 37° C
Description: (§1) In the test program, the minimum inhibitory concentrations of the respective test compounds against various Gram positive and Gram negative bacteria were determined, employing the "button assay" method. The test organisms utilized were standard cultures of Staphylococcus aureus ATCC 6538 DR, a penicillin resistant Gram positive bacterium; Bacillus subtilis ATCC 9525, a spore-forming Gram positive bacillus; and Salmonella typhosa ATCC 6539, a Gram negative bacterium.
(§2) In the tests the respective compounds were dissolved in a suitable solvent, usually acetone or dimethylsulfoxide, to give solutions with known concentrations of active material. The highest concentration was ordinarily 1000 ppm (parts per million) [0.1%], and dilutions were made in suitable steps down to 1 ppm. Penicillin test buttons of filter paper having a diameter of 13 mm (socalled "Peniassay" buttons) were added to each solution within a test tube and left submerged for five minutes. They were then removed and left to dry on paper towels under sterile conditions. A laminar flow sterile cabinet equipped with ultraviolet lamps operating under positive air pressure was utilized for this purpose.
(§3) An 18-24 hour old nutrient broth culture (standard 1.5% nutrient agar) prepared in conventional manner from a slant and having passed through at least three consecutive daily transfers was used for inoculation. Melted and cooled sterile agar (45° C) was inoculated with the respective broth cultures by addition of 20 ml broth per liter of agar. The agar was then dispensed into Petri dishes (20 ml per plate) under sterile conditions and allowed to harden.
(§4) The test buttons were placed on the surface of the hardened agar and the plates incubated for 24 hours at 37° C. Where, on inspection, a clear zone of inhibition appeared around the button, inhibition of growth was presumed. Where growth touched the button there was no inhibition. For each of the test compounds, the lowest concentration showing a clear zone is reported as the inhibitory concentration in the following table. […]

[2] = tested on: Bacillus subtilis ATCC 9525; test: button assay, antibacterial activity; settings: 24 hours at 37° C; for MIC: Bacillus subtilis, ATCC9525, lowest concentration showing a clear zone of inhibition, read-out: Antibacterial Activity B.subtilis, minimum inhibitory concentration; for Antibacterial Activity B.subtilis, minimum inhibitory concentration: lowest concentration showing a clear zone of inhibition
Description: as §1, §2, §3
The test buttons were placed on the surface of the hardened agar and the plates incubated for 24 hours at 37° C. Where, on inspection, a clear zone of inhibition appeared around the button, inhibition of growth was presumed. Where growth touched the button there was no inhibition. For each of the test compounds, the lowest concentration showing a clear zone is reported as the inhibitory concentration in the following table.
(§5) The button assay and agar incorporation tests were also utilized to determine the corresponding inhibitory concentrations of various control materials, viz., the following well known commercial antimicrobials and fungicides: hexachlorophene, tribromosalicylanilide, trichlorocarbanilide,Captan (N-(trichloromethylthio)4cyclohexene-1,2-dicarboximide) and Zineb (zinc ethylenebis[dithiocarbamate]). The minimum inhibitory concentration of each of the various control materials against the respective organisms is indicated in Table IV below: […]

[3] = tested on: Salmonella typhosa ATCC 6539; test: button assay, antibacterial activity; settings: for MIC: Salmonella enterica, read-out: Antibacterial Activity S.typhosa, minimum inhibitory concentration
Description: as §1
as §2, with “The” for “In the tests the respective compounds were dissolved in a suitable solvent, usually acetone or dimethylsulfoxide, to give solutions with known concentrations of active material. The”
as §3, §4

[4] = tested on: Aspergillus niger ATCC 6257; test: agar incorporation test, antifungal activity; settings: lowest concentration showing no growth or sporulation, four days at 28° C; for MIC: Aspergillus niger, ATCC6257, 96 h, read-out: Antifungal Activity A. niger, minimum inhibitory concentration
Description: The anti-fungal activity of the test compounds was determined employing the "agar incorporation" technique, utilizing spores from Aspergillus niger ATCC 6257 as a representative organism. Test solutions were prepared as described above in acetone or dimethylsulfoxide. A source of carbon agar such as Mycophil Agar was used. The agar was melted and cooled and placed in a constant temperature water bath at 45° C + 3° C. About 13-14 ml of the agar was then poured into a sterile Petri dish, the required amount of test solution to give the desired concentration immediately added thereto, and the dish rotated and swirled by hand to obtain a uniform mixture before the agar hardened.
The hardened plates were inoculated with the test organism by fishing spores from a 7-14 day old slant with the inocculating needle and spotting the spores on the plates, usually in several places. The inoculated plates were incubated for four days in an incubator maintained at 28° C +2° C and with a relative humidity of 95%+.
The lowest concentration of each test compound showing no growth or sporulation of the test organism was taken as the minimum inhibitory concentration and is reported in the following tabulation.
as §5

[5] = button assay, lowest concentration showing a clear zone of inhibition, 24 hours at 37° C

## CS(=O)(=O)Nc1ccc(S(=O)(=O)C=CC#N)cc1 [Example 1, 3-(4-methanesulfonylamidobenzenesulfonyl)acrylonitrile]
[1]
  MIC: 300 µg/mL (≈ 1050 µM)
[2]
  MIC: 100 µg/mL (≈ 349 µM)
[3]; 24 h
  MIC: 1000 µg/mL (≈ 3490 µM)
[4]
  MIC: > 1000 µg/mL

## COc1ccc(S(=O)(=O)Nc2ccc(S(=O)(=O)C=CC#N)cc2)cc1OC [Example 29.1, 3-[4-(3,4-dimethoxybenzenesulfonamido)benzenesulfonyl]acrylonitrile]
[1]
  MIC: 20 µg/mL (≈ 49 µM)
[2]
  MIC: 10 µg/mL (≈ 24.5 µM)
[3]; 24 h
  MIC: 10 µg/mL (≈ 24.5 µM)
[4]
  MIC: 300 µg/mL (≈ 734 µM)

## N#CC=CS(=O)(=O)c1ccc(NS(=O)(=O)c2ccc([N+](=O)[O-])cc2)cc1 [Example 22.1, 3-[4-(4-nitrobenzenesulfonamido)benzenesulfonyl]acrylonitrile]
[1]
  MIC: 100 µg/mL (≈ 254 µM)
[2]
  MIC: 50 µg/mL (≈ 127 µM)
[3]; 24 h
  MIC: 50 µg/mL (≈ 127 µM)
[4]
  MIC: > 1000 µg/mL

## N#CC=CS(=O)(=O)c1ccc(NS(=O)(=O)c2ccc3ccccc3c2)cc1 [Example 35, 3-[4-(2-naphthalenesulfonamido)benzenesulfonyl]acrylonitrile]
[1]
  MIC: 10 µg/mL (≈ 25.1 µM)
[2]
  MIC: 5 µg/mL (≈ 12.5 µM)
[3]; 24 h
  MIC: 5 µg/mL (≈ 12.5 µM)
[4]
  MIC: > 1000 µg/mL

## N#CC=CS(=O)(=O)c1ccc(N=S=O)cc1 [Example 44, 3-(4-sulfinylimidobenzenesulfonyl)acrylonitrile]
[1]
  MIC: 20 µg/mL (≈ 78.6 µM)
[2]
  MIC: 10 µg/mL (≈ 39.3 µM)
[3]; 24 h
  MIC: 10 µg/mL (≈ 39.3 µM)
[4]
  MIC: 300 µg/mL (≈ 1180 µM)

## Cc1ccccc1S(=O)(=O)Nc1ccc(S(=O)(=O)C=CC#N)cc1 [Example 16, 3-[4-(2-METHYLBENZENESULFONAMIDO)BENZENESULFONYL]ACRYLONITRILE]
[1]
  MIC: 20 µg/mL (≈ 55.2 µM)
[2]
  MIC: 20 µg/mL (≈ 55.2 µM)
[3]; 24 h
  MIC: 20 µg/mL (≈ 55.2 µM)
[4]
  MIC: > 1000 µg/mL

## CC(=O)Nc1ccc(S(=O)(=O)Nc2ccc(S(=O)(=O)C=CC#N)cc2)cc1 [Example 30, 3-[4-(4-[…])BENZENESULFONYL]ACRYLONITRILE]
[1]
  MIC: 50 µg/mL (≈ 123 µM)
[2]
  MIC: 50 µg/mL (≈ 123 µM)
[3]; 24 h
  MIC: 50 µg/mL (≈ 123 µM)
[4]
  MIC: > 1000 µg/mL

## O=C(Nc1ccc(Br)cc1)c1cc(Br)cc(Br)c1O [tribromosalicylanilide, reference compound]
[1]
  Antibacterial Activity S.aureus, minimum inhibitory concentration: 100 ppm
[2]
  Antibacterial Activity B.subtilis, minimum inhibitory concentration: 100 ppm
[3]; [5]
  Antibacterial Activity S.typhosa, minimum inhibitory concentration: 50 ppm
[4]
  Antifungal Activity A. niger, minimum inhibitory concentration: > 1,000 ppm

## CN(C)P(=O)(Nc1ccc(S(=O)(=O)C=CC#N)cc1)N(C)C [Example 51, bis-dimethylamido-4-(2-cyanoethenesulfonyl)anilidophosphine oxide]
[1]
  MIC: 20 µg/mL (≈ 58.4 µM)
[2]
  MIC: 20 µg/mL (≈ 58.4 µM)
[3]; 24 h
  MIC: 10 µg/mL (≈ 29.2 µM)
[4]
  MIC: 100 µg/mL (≈ 292 µM)

## N#CC=CS(=O)(=O)c1ccc(NS(=O)(=O)c2ccc(Cl)c([N+](=O)[O-])c2)cc1 [Example 23.2, 3-[4-(4-chloro-3-nitrobenzenesulfonamido)benzenesulfonyl]acrylonitrile]
[1]
  MIC: 100 µg/mL (≈ 234 µM)
[2]
  MIC: 300 µg/mL (≈ 701 µM)
[3]; 24 h
  MIC: 100 µg/mL (≈ 234 µM)
[4]
  MIC: 1000 µg/mL (≈ 2340 µM)

## O=C(Nc1ccc(Cl)cc1)Nc1ccc(Cl)c(Cl)c1 [trichlorocarbanilide, reference compound]
[1]
  Antibacterial Activity S.aureus, minimum inhibitory concentration: 10 ppm
[2]
  Antibacterial Activity B.subtilis, minimum inhibitory concentration: > 10,000 ppm
[3]; [5]
  Antibacterial Activity S.typhosa, minimum inhibitory concentration: 10,000 ppm
[4]
  Antifungal Activity A. niger, minimum inhibitory concentration: 1,000 ppm

## CCCCCCCCCCCCCCCCS(=O)(=O)Nc1ccc(S(=O)(=O)C=CC#N)cc1 [Example 4, 3-([…])ACRYLONITRILE]
[1]
  MIC: 20 µg/mL (≈ 40.3 µM)
[2]
  MIC: 20 µg/mL (≈ 40.3 µM)
[3]; 24 h
  MIC: 50 µg/mL (≈ 101 µM)
[4]
  MIC: 500 µg/mL (≈ 1010 µM)

## CCCCCCCCCCCCc1ccc(S(=O)(=O)Nc2ccc(S(=O)(=O)C=CC#N)cc2)cc1 [Example 17]
[1]
  MIC: 5 µg/mL (≈ 9.68 µM)
[2]
  MIC: 10 µg/mL (≈ 19.4 µM)
[3]; 24 h
  MIC: 10 µg/mL (≈ 19.4 µM)
[4]
  MIC: 300 µg/mL (≈ 581 µM)

## Cc1cc(C)c(S(=O)(=O)Nc2ccc(S(=O)(=O)C=CC#N)cc2)c(C)c1 [Example 18, 3-[4-(2,4,6-trimethylbenzenesulfonamido)benzenesulfonyl]acrylonitrile]
[1]
  MIC: 5 µg/mL (≈ 12.8 µM)
[2]
  MIC: 10 µg/mL (≈ 25.6 µM)
[3]; 24 h
  MIC: 10 µg/mL (≈ 25.6 µM)
[4]
  MIC: 100 µg/mL (≈ 256 µM)

## N#CC=CS(=O)(=O)c1ccc(NS(=O)(=O)c2ccc(O)c(C(=O)O)c2)cc1 [Example 25, 3-[4-(4-HYDROXY-3-[…])-BENZENESULFONYL]ACRYLONITRILE]
[1]
  MIC: 50 µg/mL (≈ 122 µM)
[2]
  MIC: 50 µg/mL (≈ 122 µM)
[3]; 24 h
  MIC: 50 µg/mL (≈ 122 µM)
[4]
  MIC: 500 µg/mL (≈ 1220 µM)

## N#CC=CS(=O)(=O)c1ccc(NP(=O)(Nc2ccc(S(=O)(=O)C=CC#N)cc2)Nc2ccc(S(=O)(=O)C=CC#N)cc2)cc1 [Example 45, TRIS-N,N', N"-4-(2-CYANOETHENESULFONYL)PHENYL PHOSPHORAMIDE]
[1]
  MIC: 50 µg/mL (≈ 74.8 µM)
[2]
  MIC: 5 µg/mL (≈ 7.48 µM)
[3]; 24 h
  MIC: 50 µg/mL (≈ 74.8 µM)
[4]
  MIC: 300 µg/mL (≈ 449 µM)

## Oc1c(Cl)cc(Cl)c(Cl)c1Cc1c(O)c(Cl)cc(Cl)c1Cl [hexachlorophene, reference compound]
[1]
  MIC: 5 µg/mL (≈ 12.3 µM)
[2]
  MIC: 5 µg/mL (≈ 12.3 µM)
[3]; [5]
  MIC: 20 µg/mL (≈ 49.2 µM)
[4]
  MIC: > 1000 µg/mL

## N#CC=CS(=O)(=O)c1ccc(NS(=O)(=O)c2ccc(Oc3ccc(S(=O)(=O)Nc4ccc(S(=O)(=O)C=CC#N)cc4)cc3)cc2)cc1 [Example 34, 4,4'-N,N'-bis[4-(2-cyanoethenesulfonyl)-phenylsulfamoyl]diphenyl ether]
[1]
  MIC: 100 µg/mL (≈ 141 µM)
[2]
  MIC: 100 µg/mL (≈ 141 µM)
[3]; 24 h
  MIC: 50 µg/mL (≈ 70.3 µM)
[4]
  MIC: > 1000 µg/mL

## COc1ccc(OC)c(S(=O)(=O)Nc2ccc(S(=O)(=O)C=CC#N)cc2)c1 [Example 29.2, 3-[4-(2,5-dimethoxybenzenesulfonamido)benzenesulfonyl]acrylonitrile]
[1]
  MIC: 20 µg/mL (≈ 49 µM)
[2]
  MIC: 20 µg/mL (≈ 49 µM)
[3]; 24 h
  MIC: 50 µg/mL (≈ 122 µM)
[4]
  MIC: 1000 µg/mL (≈ 2450 µM)

## CC(C)c1cc(C(C)C)c(S(=O)(=O)Nc2ccc(S(=O)(=O)C=CC#N)cc2)c(C(C)C)c1 [Example 19, 3-[4-(2,4,6-tri-isopropylbenzenesulfonamido)benzenesulfonyl]acrylonitrile]
[1]
  MIC: 1000 µg/mL (≈ 2110 µM)
[2]
  MIC: 1000 µg/mL (≈ 2110 µM)
[3]; 24 h
  MIC: 1000 µg/mL (≈ 2110 µM)
[4]
  MIC: > 1000 µg/mL

## C=CS(=O)(=O)Nc1ccc(S(=O)(=O)C=CC#N)cc1 [Example 9, 3-(4-[…])ACRYLONITRILE]
[1]
  MIC: 20 µg/mL (≈ 67 µM)
[2]
  MIC: 10 µg/mL (≈ 33.5 µM)
[3]; 24 h
  MIC: 50 µg/mL (≈ 168 µM)
[4]
  MIC: 100 µg/mL (≈ 335 µM)

## N#CC=CS(=O)(=O)c1ccc(NS(=O)(=O)c2ccc(Cl)cc2)cc1 [Example 20, 3-[4-(4-chlorobenzenesulfonamido)benzenesulfonyl]acrylonitrile]
[1]
  MIC: 20 µg/mL (≈ 52.2 µM)
[2]
  MIC: 5 µg/mL (≈ 13.1 µM)
[3]; 24 h
  MIC: 10 µg/mL (≈ 26.1 µM)
[4]
  MIC: > 1000 µg/mL

## Cc1ccc(S(=O)(=O)Nc2ccc(S(=O)(=O)C=CC#N)cc2)cc1 [Example 13, 3-[4-(4-methylbenzenesulfonamido)benzenesulfonyl]acrylonitrile]
[1]
  MIC: 5 µg/mL (≈ 13.8 µM)
[2]
  MIC: 5 µg/mL (≈ 13.8 µM)
[3]; 24 h
  MIC: 5 µg/mL (≈ 13.8 µM)
[4]
  MIC: > 1000 µg/mL
